The values that follow are results of earlier work, collected in the CATMoS acute toxicity set (Mansouri et al. 2021).

Where “and” joins values, the source holds several entries; their conditions need not be identical. Identical values can stand only once.

The nature of the data set: rat acute oral toxicity. Conditions: in vivo.
Turning to `CO[C@@H]1[C@@H](O)[C@@H](O)[C@H](O[C@@H]2C=C3CC[C@@H]4[C@H](CC[C@]5(C)[C@@H](c6ccc(=O)oc6)CC[C@]45O)[C@@]3(C)CC2)O[C@H]1C`, the LD50 was 79 mg/kg.
For `CCN1CN(CO)C(=O)N(CO)C1`, the LD50 is 8220 mg/kg.
Regarding `CCOC(=O)C(C(=O)Cc1c(C)n(C(=O)c2ccc(Cl)cc2)c2ccc(OC)cc12)C(=O)OCC`, the LD50 is 520 mg/kg.
For the compound `C=C[Si](Cl)(Cl)CC`, the LD50 was 2830 mg/kg.
As to `Cc1ccc2[nH]nnc2c1`, the LD50 was 1600 mg/kg.
Consider `c1cc(N(CC2CO2)CC2CO2)ccc1OCC1CO1` (stereo unspecified), for which the LD50 was 1040 mg/kg.
Consider `CNC(=O)Oc1cccc2sccc12`, for which the LD50 was 70 mg/kg.
As to `CCCCN(N=O)C(=O)OCC`, the LD50 is 900 mg/kg.
Turning to `NCC(=O)O`, the LD50 was 7930 mg/kg and 3340 mg/kg.
Take `O=C(SCc1ccccc1)N1CCOCC1`: the LD50 was 50 mg/kg.
With `CC/C=C\CCOCC=O`, the LD50 was 4100 mg/kg.
On to `O=C1CCc2ccccc2O1`, for which the LD50 is 1460 mg/kg.
In the case of `CN(C(=O)CN(CCO)CC(=O)N(C)C(C)(C)Cc1ccccc1)C(C)(C)Cc1ccccc1`, the LD50 was 1000 mg/kg and 675 mg/kg.
Regarding `CC(=O)c1ccccn1`, the LD50 is 2280 mg/kg.
Take `CCC(C)c1ccccc1` (stereo unspecified): the LD50 is 2240 mg/kg.
On to `CC(=O)N(CC(C)C(=O)O)c1c(I)cc(I)c(N)c1I` (stereo unspecified), for which the LD50 is 7100 mg/kg.
For `CC[N+](CC)(CC)CCO`, the LD50 was 1000 mg/kg.
For the compound `Cc1cc(Cl)ccc1/N=C/N(C)C`, the LD50 was 225 mg/kg.
For `CCCCNC1(P(=O)(OCCCC)OCCCC)CCCCC1`, the LD50 was 3000 mg/kg.
`CCc1occc(=O)c1O`: the LD50 was 1150 mg/kg.
For `CCC(SC(C)=NOC(=O)NC)C(N)=O` (stereo unspecified), the LD50 was 14.1 mg/kg.
In the case of `CNC(=O)Oc1ccccc1C(C)C`, the LD50 was 450 mg/kg.
`CCCc1c(OCCCCc2nnn[nH]2)ccc(C(C)=O)c1O`: the LD50 is 650 mg/kg.
Consider `CC(C)OCCCO`, for which the LD50 was 4000 mg/kg.
`CCOC(=O)c1ccccc1S(=O)(=O)NC(=O)Nc1nc(Cl)cc(OC)n1`: the LD50 was 4100 mg/kg.
With `CNCC(O)c1ccc(OC(=O)C(C)(C)C)c(OC(=O)C(C)(C)C)c1` (stereo unspecified), the LD50 is 183 mg/kg.
Regarding `CSP(SC)SC`, the LD50 is 105 mg/kg.
With `CN(C)CCNN`, the LD50 is 2110 mg/kg.
With `CCOP(=O)(OC=C(Cl)Cl)OCCCl` (stereo unspecified), the LD50 was 5 mg/kg.
`Nc1ccc(-c2ccc(-n3nc4ccc5c(S(=O)(=O)O)cc(S(=O)(=O)O)cc5c4n3)cc2)cc1`: the 50% lethal dose (LD50) was 7210 mg/kg.
Regarding `Cc1ncc(CS)c(CS)c1O`, the LD50 was 549 mg/kg.
On to `CC(C)[C@]12CC(=O)[C@H](C)[C@H]1C2`, for which the LD50 is 500 mg/kg.
Turning to `CC(O)c1ccccc1` (stereo unspecified), the LD50 was 400 mg/kg.
Consider `N#CCCl`, for which the LD50 was 220 mg/kg.
As for `O=C1N(Cl)C2C(N1Cl)N(Cl)C(=O)N2Cl` (stereo unspecified), the LD50 is 2150 mg/kg.
In the case of `CCOC(C1=NCC(C)(CC)CN1)c1ccccc1` (stereo unspecified), the LD50 is 220 mg/kg.
`CC(C)(C)NCC(O)c1ccccc1Cl` (stereo unspecified): the LD50 is 560 mg/kg.
For `BrCBr`, the LD50 is 108 mg/kg.
As for `Clc1ccc(CSC(Cn2ccnc2)c2ccc(Cl)cc2Cl)cc1` (stereo unspecified), the LD50 was 1740 mg/kg.
With `CC(C)(C)NCC(O)c1cc(Cl)c(N)c(Cl)c1` (stereo unspecified), the LD50 was 159 mg/kg.
For `O=CN(c1ncnc2c1ncn2CC1CC1)C1CC1`, the LD50 is 500 mg/kg.
Regarding `C=CCn1c(N)cc(=O)n(CC)c1=O`, the LD50 was 2300 mg/kg.
As for `CCC1(C)CC(=O)NC1=O` (stereo unspecified), the LD50 was 1820 mg/kg.
Take `CNC(=O)Oc1ccc(NC(C)=O)cc1`: the 50% lethal dose (LD50) is 794 mg/kg.
For `CC1(C)CC(NCCC(=O)NC2CC(C)(C)NC(C)(C)C2)CC(C)(C)N1`, the LD50 was 4180 mg/kg.
In the case of `OC[P+](CO)(CO)CO`, the LD50 is 232 mg/kg.
Take `CC1(C)CC2(NC(=O)N(CCCN3CCC(O)CC3)C2=O)c2cc(Cl)ccc2O1` (stereo unspecified): the LD50 was 858 mg/kg.
Take `Clc1ccc(Cn2c(CN3CCCC3)nc3ccccc32)cc1`: the LD50 is 1950 mg/kg.
Turning to `CCCNC(=O)C(C)Nc1ccc(OCC)cc1` (stereo unspecified), the LD50 was 3000 mg/kg.
As for `CC(O)COS(C)(=O)=S` (stereo unspecified), the LD50 is 794 mg/kg.
As for `CCC(CO)NC(=O)C1C=C2c3cccc4[nH]cc(c34)CC2N(C)C1` (stereo unspecified), the LD50 was 93 mg/kg.

What is called LD50 is the dose at which mortality reaches 50%.
